Values of other authors in US7049092B1 (priority 1999, dated 2006).

Target: hormone-sensitive lipase
Conditions: read-out: IC50 (concentration producing 50% inhibition)

## [Cl][Hg][Cl] [HgCl2 (mercuric chloride), mercuric chloride]
  IC50: 11 µM
